Experiment [1] has as its system TNF. Briefly: PBMC assay: TNF cytokine level after LPS stimulation. The format is cell-based. The settings on record: PBMC; human PBMCs, 30 min compound, 100 ng/ml LPS for 6 hrs, MSD. How it is done:
(§1) Peripheral venous blood was collected from healthy individuals and human peripheral blood mononuclear cells (PBMCs) were isolated from blood by Ficoll-Histopaque (Sigma-Aldrich, A0561) density gradient centrifugation. After isolation, PBMCs were stored in liquid nitrogen for later use. Upon thawing, PBMC cell viability was determined in growth medium (RPMI media supplemented with 10% fetal bovine serum, 1% Pen-Strep and 1% L-glutamine). Compounds were spotted in a 1:3 serial dilution in DMSO and diluted to the final concentration in 30 μl medium in 96 well plates (Falcon, 353072). PBMCs were added at a density of 7.5×10^4 cells per well and incubated for 30 min in a 5% CO2 incubator at 37° C. LPS stimulation was performed by addition of 100 ng/ml LPS (final concentration, Invivogen, tlrl-smlps) for 6 hrs followed by collection of cellular supernatant and the analysis of IL-1β (μM) and TNF cytokines levels (μM) via MSD technology according to manufacturers' guidelines (MSD, K151A0H).
(§2) IC50 and AC50 values (for […]) and EC50 and AC50 values (TNF) were obtained on compounds of the invention/examples, and the AC50 values are depicted in the following table: […]

The subject of experiment [2] is IL-1β. Briefly: PBMC assay: IL-1β release after LPS stimulation. Type of experiment: cell-based. The settings on record: PBMC; human PBMCs, 30 min compound, 100 ng/ml LPS for 6 hrs, MSD; read-out: IL1β AC50. The procedure:
The activity of a compound according to the present invention can be assessed by in vitro methods.
as §1, §2

Each structure is given as a SMILES string. Where only a bound is given, the exact number is not on record here.

Turning to `CC(C)COc1cc(=O)n(CC(=O)NC23CCC(N)(CC2)C3)nc1C(C)C` [Compound 75, N-((1r,4r)-4-aminobicyclo[2.2.1]heptan-1-yl)-2-(4-isobutoxy-3-isopropyl-6-oxopyridazin-1(6H)-yl)acetamide], the concentration at half-maximal activity (AC50) in experiment [1] is > 20 µM; in experiment [2] it was 0.36 µM.
Regarding `CN(C)c1nn(CCO)c(=O)cc1OCC1CC1` [Compound 157, 5-(cyclopropylmethoxy)-6-(dimethylamino)-2-(2-hydroxyethyl)pyridazin-3(2H)-one], the AC50 in experiment [1] and in experiment [2] was > 20 µM each time.
With `CC(C)c1nn(CC(=O)Nc2ccc3nncn3c2)c(=O)cc1OCC1CCC1` [Compound 7F], the figures for the AC50 in experiment [1] and in experiment [2] were > 10 µM and 0.21 µM, respectively.
For `CC(C)COc1cc(=O)n(CC(=O)Nc2nc3ccc(Br)cc3n2C)nc1C(C)C` [Compound 135] the same measures were > 10 µM and > 10 µM.
As to `COC(=O)C12CCC(NC(=O)Cn3nc(C(C)C)c(OCC(C)C)cc3=O)(CC1)CC2` [Compound 45], the AC50 in experiment [1] was > 20 µM; in experiment [2] it was 0.07 µM.
For `CC(C)COc1c(C(C)C)nn(CC(=O)Nc2ccc3nncn3c2)c(=O)c1C(F)F` [Compound 118] the same measures were > 20 µM and 2.3 µM.
For `COc1cc(=O)n(CC(=O)Nc2ccc3nncn3c2)nc1C(C)C` [Compound 162], the AC50 in experiment [1] and in experiment [2] was > 20 µM each time.
For `CC(C)COc1cc(=O)n(CC(=O)Nc2nc3ccc(C(F)(F)F)cn3n2)nc1C(C)C` [Compound 124], the AC50 in experiment [1] was > 20 µM; in experiment [2], 3.4 µM.
With `CC(C)c1nn(CC(=O)Nc2ccc3nncn3c2)c(=O)cc1OC1CN(C(=O)OC(C)(C)C)C1` [Compound 3F], the AC50 in experiment [1] was > 10 µM; in experiment [2] it was > 15 µM.
In the case of `CC(C)c1nn(CC(=O)Nc2ccc3nncn3n2)c(=O)cc1OCC1CC1` [Compound 51], the AC50 in experiment [1] was > 20 µM; in experiment [2], 0.09 µM.
In the case of `CC(C)c1nn(CC(=O)Nc2ccc3nncn3c2)c(=O)cc1OCC1CC1` [Compound 22F], the results for the concentration at half-maximal activity (AC50) in experiment [1] and in experiment [2] were > 10 µM and 0.11 µM, respectively.
For `CCOc1cc(=O)n(CC(=O)Nc2ccc3nncn3c2)nc1C1CC1` [Compound 33D] the same measures were > 10 µM and 1.25 µM.
For `CC(C)COc1c(C(C)C)nn(CC(=O)Nc2ccc3nncn3n2)c(=O)c1C(C)O` (stereo not drawn) [Compound 127], in that order: 19.4 µM and 3.88 µM.
With `Cc1nnc(C23CC(NC(=O)Cn4nc(C(C)C)c(OCC(C)C)cc4=O)(C2)C3)o1` [Compound 119, 2-(4-isobutoxy-3-isopropyl-6-oxopyridazin-1(6H)-yl)-N-(3-(5-methyl-1,3,4-oxadiazol-2-yl)bicyclo[1.1.1]pentan-1-yl)acetamide], the figures for the AC50 in experiment [1] and in experiment [2] were > 20 µM and 2.52 µM, respectively.
Take `CC(C)COc1cc(=O)n(CC(=O)Nc2nc3ccc(F)cn3n2)nc1C(C)C` [Compound 69]: the figures for the AC50 in experiment [1] and in experiment [2] were > 20 µM and 0.25 µM, respectively.
For `CN(C)c1nn(CC(=O)Nc2ccc3nncn3n2)c(=O)cc1OCC1CC1` [Compound 76] the same measures were > 20 µM and 0.37 µM.
For `CC(C)c1nn(CC(=O)Nc2ccc3nncn3c2)c(=O)cc1Oc1ccccc1` [Compound 25F] the same measures were > 10 µM and > 15 µM.
For `COc1c(C(C)C)nn(CC(=O)Nc2ccc3nncn3c2)c(=O)c1Br` [Compound 29E], in that order: > 10 µM and > 15 µM.
With `O=C(Cn1nc(OCC(F)(F)F)c(OCC(F)(F)F)cc1=O)Nc1ccc2nncn2n1` [Compound 142], the AC50 is > 20 µM in experiment [1] and 15.7 µM in experiment [2].
`Cc1c(OCC(C)C)c(C(C)C)nn(CC(=O)Nc2ccc3nccn3n2)c1=O` [Compound 68]: the AC50 in experiment [1] is > 20 µM; in experiment [2] it was 0.24 µM.
`CC(C)c1nn(CC(=O)Nc2ccc3nncn3n2)c(=O)cc1OCCC(F)(F)F` [Compound 102]: the results for the half-maximal activity concentration (AC50) in experiment [1] and in experiment [2] were > 20 µM and 1.06 µM, respectively.
Take `CN(C)c1nn(CC(=O)Nc2ccc3nncn3n2)c(=O)cc1OCC(F)(F)F` [Compound 95]: the AC50 in experiment [1] stood at 18.2 µM; in experiment [2], 0.79 µM.
With `CC(C)COc1cc(=O)n(CC(=O)Nc2nc3cnccn3n2)nc1C(C)C` [Compound 43], the values for the AC50 in experiment [1] and in experiment [2] were > 20 µM and 0.07 µM, respectively.
Take `CC(C)c1nn(CC(=O)Nc2ccc3nncn3c2)c(=O)cc1OCC(C)(C)F` [Compound 11F]: the values for the concentration at half-maximal activity (AC50) in experiment [1] and in experiment [2] were > 10 µM and 0.32 µM, respectively.
Take `Cc1c(OCC(C)C)c(C(C)C)nn(CC(=O)Nc2ccncc2)c1=O` [Compound 73]: the results for the AC50 in experiment [1] and in experiment [2] were > 20 µM and 0.33 µM, respectively.
For `CC(C)c1nn(CC(=O)Nc2ccc3nncn3c2)c(=O)cc1OCC(F)(F)F` [Compound 23F], in that order: > 10 µM and 0.16 µM.
For `O=C(Cn1nc(C2CC2)c(OC2CCOCC2)cc1=O)Nc1ccc2nncn2c1` [Compound 30G], the AC50 was > 10 µM in experiment [1] and 14.6 µM in experiment [2].
For `CC(C)c1nn(CC(=O)Nc2ccc3nncn3c2)c(=O)c(Cl)c1OCCC(F)(F)F` [Compound 138] the same measures were > 20 µM and 10.7 µM.
For `Cc1c(OCc2ccccc2)c(C(C)C)nn(CC(=O)Nc2ccc3nncn3c2)c1=O` [Compound 152], the AC50 in experiment [1] and in experiment [2] was > 20 µM throughout.
On to `CNC(C(F)(F)F)C12CC(NC(=O)Cn3nc(C(C)C)c(OCC(C)C)cc3=O)(C1)C2` (stereo not drawn) [Compound 109], for which the AC50 in experiment [1] was > 20 µM; in experiment [2], 1.35 µM.
`CC(C)COc1cc(=O)n(CC(=O)NC23CC(S(C)(=O)=O)(C2)C3)nc1C(C)C` [Compound 101]: the values for the AC50 in experiment [1] and in experiment [2] were > 20 µM and 1.02 µM, respectively.
For `Cc1c(OCC(C)C)c(C(C)C)nn(CC(=O)Nc2ccc3nncn3n2)c1=O` [Compound 42], the values for the AC50 in experiment [1] and in experiment [2] were 9.41 µM and 0.05 µM, respectively.
As to `CC(C)COc1cc(=O)n(CC(=O)NC23CC(S(=O)(=O)C4CC4)(C2)C3)nc1C(C)C` [Compound 116], the AC50 was > 20 µM in experiment [1] and 1.91 µM in experiment [2].
As to `CC(C)c1nn(CC(=O)Nc2ccc3nncn3c2)c(=O)cc1OC1CCCC1` [Compound 5F], the half-maximal activity concentration (AC50) in experiment [1] was > 10 µM; in experiment [2] it was 0.47 µM.
For `CC(C)c1nn(CC(=O)Nc2ccc3nncn3c2)c(=O)c(Cl)c1OCC(C)(F)F` [Compound 93], the results for the half-maximal activity concentration (AC50) in experiment [1] and in experiment [2] were 8.92 µM and 0.77 µM, respectively.
In the case of `CCCOc1c(C(C)C)nn(CC(=O)Nc2ccc3nncn3n2)c(=O)c1Cl` [Compound 48], the values for the concentration at half-maximal activity (AC50) in experiment [1] and in experiment [2] were 4.98 µM and 0.09 µM, respectively.
As to `CC(C)COc1cc(=O)n(CC(=O)Nc2nc3ccccc3n2C)nc1C(C)C` [Compound 147], the AC50 in experiment [1] and in experiment [2] was > 20 µM throughout.
Take `CC(C)COc1c(C(C)C)nn(CC(=O)Nc2ccc3nncn3c2)c(=O)c1Cl` [Compound 60, N-([1,2,4]triazolo[4,3-a]pyridin-6-yl)-2-(5-chloro-4-isobutoxy-3-isopropyl-6-oxopyridazin-1(6H)-yl)acetamide]: the concentration at half-maximal activity (AC50) in experiment [1] was > 20 µM; in experiment [2], 0.16 µM.
Consider `COC(=O)C12CC(NC(=O)Cn3nc(C(C)C)c(OCC(C)C)cc3=O)(C1)C2` [Compound 36, methyl 3-(2-(4-isobutoxy-3-isopropyl-6-oxopyridazin-1(6H)-yl)acetamido)bicyclo[1.1.1]pentane-1-carboxylate], for which the AC50 in experiment [1] came out at 3.81 µM; in experiment [2] it was 0.01 µM.
Take `CC(C)COc1cc(=O)n(CC(=O)NC23CCC(C(=O)O)(CC2)CC3)nc1C(C)C` [Compound 67]: the values for the AC50 in experiment [1] and in experiment [2] were > 20 µM and 0.24 µM, respectively.
`CC(C)COc1c(C(C)C)nn(CC(=O)Nc2ccc3nncn3n2)c(=O)c1C(F)F` [Compound 62]: the values for the AC50 in experiment [1] and in experiment [2] were 3.75 µM and 0.18 µM, respectively.
For `CC(C)COc1cc(=O)n(CC(=O)Nc2nc3ccc(F)cc3n2C)nc1C(C)C` [Compound 136] the same measures were > 10 µM and > 10 µM.
As for `CC(C)COc1cc(=O)n(CC(=O)Nc2nc3ncccn3n2)nc1C(C)C` [Compound 77], the AC50 in experiment [1] was > 20 µM; in experiment [2] it was 0.4 µM.
With `CC(C)COc1cc(=O)n(CC(=O)NC23CC(NC(=O)OC(C)(C)C)(C2)C3)nc1C(C)C` [Compound 132], the AC50 was > 20 µM in experiment [1] and 9.79 µM in experiment [2].
Consider `CC(C)COc1cc(=O)n(CC(=O)NC23CCC(N)(CC2)CC3)nc1C(C)C` [Compound 99], for which the AC50 in experiment [1] is > 20 µM; in experiment [2], 0.97 µM.
For `CCC(C)Oc1cc(=O)n(CC(=O)Nc2ccc3nncn3c2)nc1C(C)C` (stereo not drawn) [Compound 9F], the results for the concentration at half-maximal activity (AC50) in experiment [1] and in experiment [2] were > 10 µM and 0.56 µM, respectively.
With `CC(C)COc1cc(=O)n(CC(=O)N[C@H]2C[C@]3(CCN3C)C2)nc1C(C)C` [Compound 89, 2-(4-isobutoxy-3-isopropyl-6-oxopyridazin-1(6H)-yl)-N-((4s,6r)-1-methyl-1-azaspiro[3.3]heptan-6-yl)acetamide], the concentration at half-maximal activity (AC50) is > 20 µM in experiment [1] and 0.67 µM in experiment [2].
For `CC(C)c1nn(CC(=O)Nc2ccc3nncn3c2)c(=O)cc1OC1COC1` [Compound 13F] the same measures were > 10 µM and > 15 µM.

The values above are taken from patent publication US20240109905A1, “4-ALKOXY-6-OXO-PYRIDAZINE DERIVATIVES MODULATING NLRP3” (JANSSEN PHARMACEUTICA NV, priority 2021, published 2024).
